According to PMC7179297, “Preclinical Antimalarial Combination Study of M5717, a Plasmodium falciparum Elongation Factor 2 Inhibitor, and Pyronaridine, a Hemozoin Formation Inhibitor” (Antimicrobial Agents and Chemotherapy, 2020):
Where two headings read alike, the source gives them in different places.

Tests used:
[1] = tested on: P. falciparum eEF2 mutant parasites; set-up: method as in PMID 26085270; conditions: cited from earlier work
[2] = Pharmacokinetic analysis in blood of mice from the efficacy study; assay type: in vivo; conditions: for AUC(0-inf) / half-life: NOD-scid IL-2Rγnull, mouse, whole blood, po; for AUC(0-inf): mean ± SD; for half-life / pharmacokinetics in combination versus single-agent treatment / half-life (t1/2): mice; for half-life / half-life (t1/2): administered alone, single oral dose; for half-life: read-out: half-life (t1/2) (converted); for pharmacokinetics in combination versus single-agent treatment: Cmax, AUC0-inf and t1/2, entries 8 to 11
Description: The test compounds’ concentrations in blood were assessed in order to determine pharmacokinetic parameters in mice from the efficacy study. Peripheral blood samples (20 μl) were sampled at different time points (1, 2, 4, 6, 24, 48, 72, 96, 168, and 216 h post treatment), mixed with 20 μl of H2O Milli Q and immediately frozen on dry ice. Samples were stored at –80°C until analysis. Blood from control mice was used for bioanalysis calibration and QC purposes. For liquid chromatography with tandem mass spectrometry (LC-MS/MS) analysis, the frozen samples were thawed and treated with two volumes equivalent of acetonitrile containing the internal standard. After centrifugation, one volume equivalent of supernatant was diluted with one volume equivalent of water containing heptafluorobutyric acid (HFBA). The extracts were analyzed by LC-MS/MS (quantification by HESI ionization in positive ion mode) performed at Swiss BioQuant AG (Switzerland). A noncompartmental analysis was performed to determine pharmacokinetic parameters using the Phoenix WinNonlin program (version 6.3).
56 Pharmacokinetic parameters
57 The pharmacokinetic analysis was performed non-compartmentally using the extravascular model. For the analysis,
58 concentrations below the LLOQ were set to 0. The following pharmacokinetic parameters of the analytes were
59 derived from the concentration-time profiles.
C0 The pre-dose concentration assumed to be 0 on the day of oral dosing.
tmax Time where the concentration in matrix is the highest.
Cmax/dose Cmax normalized to the dose of 1 mg/kg.
AUC0-t Area under the matrix concentration -time curve from 0 h to time t calculated using
the linear trapezoidal rule , using C0 as defined above.
AUC0-∞ Area under the matrix concentration -time curve from 0 h to infinity calculated using
AUC0-∞/dose AUC0-∞ normalized to a dose of 1 mg/kg.
61 Software for calculations: Phoenix WinNonlin program (version 6.3).
62 All concentration values and pharmacokinetic parameters were rounded to 3 significant digits.
63 The numbers listed for %bias and %CV were rounded to 1 decimal place.

[3] = 400 mg in healthy volunteers ref 16; cited from earlier work

## O=C(NCCN1CCCC1)c1cc(-c2ccc(CN3CCOCC3)cc2)nc2ccc(F)cc12 [M5717]
[1]; eEF2 mutation L755F ref 7
  IC50 fold shift: 660 fold
[1]; eEF2 mutation P754A ref 7
  IC50 fold shift: 135 fold
[1]; eEF2 mutation P754S ref 7
  IC50 fold shift: 200 fold
[1]; eEF2 mutation Y186N, high-grade resistance ref 7
  fold shift of IC50: > 3,000 fold
[2]; 3 mg/kg, M5717 3 mg/kg single oral dose (entry 1), read-out: M5717 exposure AUC0-inf
  AUC(0-inf): 1570 ng·h/mL
[2]; 6 mg/kg, M5717 6 mg/kg single oral dose (entry 2), read-out: M5717 exposure AUC0-inf
  AUC(0-inf): 3390 ng·h/mL
[2]; 12 mg/kg, M5717 12 mg/kg + pyronaridine 12 mg/kg single oral dose (entry 10), read-out: M5717 exposure AUC0-inf
  AUC(0-inf): 6650 ng·h/mL
[2]; 12 mg/kg, M5717 12 mg/kg single oral dose (entry 3), read-out: M5717 exposure AUC0-inf
  AUC(0-inf): 6160 ng·h/mL
[2]; 30 mg/kg, M5717 30 mg/kg single oral dose (entry 4), read-out: M5717 exposure AUC0-inf
  AUC(0-inf): 16900 ng·h/mL
[2]; M5717 3 mg/kg + pyronaridine 6 mg/kg single oral dose (entry 8), read-out: M5717 exposure AUC0-inf
  AUC(0-inf): 1360 ng·h/mL
[2]; M5717 6 mg/kg + pyronaridine 36 mg/kg single oral dose (entry 11), read-out: M5717 exposure AUC0-inf
  AUC(0-inf): 2980 ng·h/mL
[2]; M5717 12 mg/kg + pyronaridine 6 mg/kg single oral dose (entry 9), read-out: M5717 exposure AUC0-inf
  AUC(0-inf): 6400 ng·h/mL
[2]
  half-life: ~37 h
  pharmacokinetics in combination versus single-agent treatment: unchanged
  half-life (t1/2): 37 h

## COc1ccc2nc3cc(Cl)ccc3c(Nc3cc(CN4CCCC4)c(O)c(CN4CCCC4)c3)c2n1 [pyronaridine]
[3]
  t1/2: 241 h
[2]; 6 mg/kg, pyronaridine 6 mg/kg single oral dose (entry 5), read-out: Pyronaridine exposure AUC0-inf
  AUC(0-inf): 6560 ng·h/mL
[2]; 12 mg/kg, M5717 12 mg/kg + pyronaridine 12 mg/kg single oral dose (entry 10), read-out: Pyronaridine exposure AUC0-inf
  AUC(0-inf): 12100 ng·h/mL
[2]; 12 mg/kg, pyronaridine 12 mg/kg single oral dose (entry 6), read-out: Pyronaridine exposure AUC0-inf
  AUC(0-inf): 14500 ng·h/mL
[2]; 36 mg/kg, pyronaridine 36 mg/kg single oral dose (entry 7), read-out: Pyronaridine exposure AUC0-inf
  AUC(0-inf): 55600 ng·h/mL
[2]; M5717 3 mg/kg + pyronaridine 6 mg/kg single oral dose (entry 8), read-out: Pyronaridine exposure AUC0-inf
  AUC(0-inf): 8500 ng·h/mL
[2]; M5717 6 mg/kg + pyronaridine 36 mg/kg single oral dose (entry 11), read-out: Pyronaridine exposure AUC0-inf
  AUC(0-inf): 58200 ng·h/mL
[2]; M5717 12 mg/kg + pyronaridine 6 mg/kg single oral dose (entry 9), read-out: Pyronaridine exposure AUC0-inf
  AUC(0-inf): 8490 ng·h/mL
[2]
  half-life: ~74 h
  pharmacokinetics in combination versus single-agent treatment: No change
  half-life (t1/2): 74 h
